Values quoted from earlier work as cited in patent US6638906B1, “Amphiphilic polymers and polypeptide conjugates comprising same” (Nobex Corporation, priority 1999, dated 2003).

Assays:
native CCK cells = details: versus vehicle/basal secretion
food intake = details: infused into the duodenum of rats with trypsin inhibitors
[1] = system: pancreatic protein output; details: infused into the duodenum of rats
CCK release = details: relative to LCRF

Row | Molecule | increase in CCK secretion (native CCK cells) [%] | increase in CCK secretion (STC-1 cells) [%] | effect on food intake (food intake) | dose-response of pancreatic protein output [1] | potency for stimulating CCK release, fold less than LCRF (CCK release)
1 | luminal cholecystokinin releasing factor [Native LCRF] | ~300 | ~300 | causes a reduction of food intake | biphasic dose-response of curve of pancreatic protein output is observed, with higher doses of LCRF leading to decreased pancreatic protein output | 
2 | diazepan binding inhibitor: peptide secreted into the intestines found to stimulate CCK release (protein, UniProt P07108 2-87, looked up) Acyl-CoA-binding protein: SQAEFEKAAEEVRHLKTKPSDEEMLFIYGHYKQATVGDINTERPGMLDFTGKAKWDAWNELKGTSKEDAMKAYINKVEELKKKYGI |  |  |  |  | 100-1,000 fold
3 | monitor peptide: peptide secreted into the intestines that controls CCK release by positive feedback regulation (protein, UniProt P09655 19-79, looked up) Serine protease inhibitor …: GNPPAEVNGKTPNCPKQIMGCPRIYDPVCGTNGITYPSECSLCFENRKFGTSIHIQRRGTC |  |  |  |  | 6 fold
